Results on 14 compounds are retold here after PMC3479139, “Diverse Small Molecule Inhibitors of Human Apurinic/Apyrimidinic Endonuclease APE1 Identified from a Screen of a Large Public Collection” (PLoS ONE, 2012).

The target in test [1] is T1, APE1 (Homo sapiens, UniProt P27695).
T1 construct: made in house
In words: Fluorescence polarization (FP) displacement assay of APE1 binding to AP-DNA probe.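 Also: TAMRA 5′-labeled duplex DNA with THF abasic site (5 nM) and APE1 (20 nM), Mg2+-free buffer, 15 min at room temperature, inhibition seen as lowered polarization.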 As to conditions: read-out: FP IC50. A general note: Fluorescence polarisation rises when a labelled molecule tumbles more slowly, as on binding a larger partner.
Description: Double-stranded oligodeoxynucleotide containing tetrahydrofuran (THF) abasic site labeled with TAMRA at the 5′-end was used as the labeled binding probe. Inhibition of APE1 binding to labeled probe was detected by a decrease in the fluorescence polarization (FP) of the fluorophore. Briefly, 4 µL mixture of 20 nM APE1 and 5 nM probe contained in the enzymatic assay buffer from which Mg^2+ was omitted, was dispensed into 1536-well Greiner black solid bottom plates. Compounds (23 nL) were transferred via pintool, and after a 15-minute incubation at room temperature, fluorescence polarization was measured in a ViewLux High-throughput CCD imager (480 nm excitation and 540 nm emission) to determine the degree of probe displacement caused by the test compounds.

In test [2] the target is double-stranded 17-mer DNA fragment. Nature of the test: ThO (Thiazole Orange) DNA displacement assay.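 Also: miniaturized displacement of the intercalating dye from unlabeled duplex DNA, used to flag nonspecific DNA binders, chiefly intercalators, groove binders may be missed.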 The class given is binding. The note with it: read-out: ThO-DNA binding IC50.
Test [3] deals with T1, APE1. Nature of the test: Gel-based radiotracer (32P) APE1 incision assay.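 Also: APE1 incision reactions ran 5 min at 37 °C, with cleaved product and intact substrate resolved electrophoretically.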 The class given is biochemical. Also noted: concentration or dose not given beside the values. The note with it: percent incision shown; entries 1-112.
The target in the next test is T2, E. coli Endo IV (Escherichia coli, UniProt P0A6C1).
T2 construct: made in house
In words: E. coli Endo IV profiling counterscreen.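 Also: selectivity counterscreen of candidate APE1 inhibitors against the bacterial endonuclease Endo IV, run in the same assay format as the primary APE1 high-throughput screen.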 The format is biochemical. As to conditions: read-out: EndoIV IC50.

Test [4] addresses T1, APE1. Nature of the test: Fluorogenic kinetic qHTS APE1 incision assay (primary screen and retest of cherrypicked samples).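 Also: purified APE1 cleaving a fluorophore/dark-quencher labelled 17-mer duplex DNA bearing a tetrahydrofuran AP site, fluorescence rise followed kinetically over the first 2 min, inhibition normalized to controls.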 The class given is biochemical. (qHTS replaces the single test concentration by a dilution series.)
Where [5] appears, read: initial quantitative high-throughput screen, read-out: APE1 qHTS IC50.
[6] abbreviates: retest of cherrypicked sample, read-out: APE1 Retest IC50.

T1 sequence (P27695 whole entry): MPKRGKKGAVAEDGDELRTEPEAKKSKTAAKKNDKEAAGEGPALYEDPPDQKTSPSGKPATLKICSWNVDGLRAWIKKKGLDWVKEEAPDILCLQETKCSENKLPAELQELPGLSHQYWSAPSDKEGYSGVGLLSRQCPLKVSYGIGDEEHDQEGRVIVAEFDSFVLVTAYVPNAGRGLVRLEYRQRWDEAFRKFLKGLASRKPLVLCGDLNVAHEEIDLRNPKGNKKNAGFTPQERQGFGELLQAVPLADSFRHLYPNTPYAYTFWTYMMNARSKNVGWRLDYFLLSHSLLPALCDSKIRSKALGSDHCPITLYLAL
Excerpt for E. coli Endo IV: In order to screen out nonselective compounds, such as non-specific DNA binders and inhibitors of related enzymes, we used a miniaturized ThO DNA displacement assay and a counterscreen against the bacterial endonuclease E. coli Endo IV, respectively, following the previously published protocols [21].
To probe the selectivity of the candidate APE1 inhibitors, we tested them against E. coli EndoIV [36], employing the same assay as used in the HTS.

Turning to `COc1ccc(C(CC(=O)N2CCCCC2)c2c(OC)cc(OC)c3c(-c4ccccc4)cc(=O)oc23)cc1` (centres unmarked) [MLS000879461], the IC50 on APE1 [1] is 14.1 µM; in test [2], > 57 µM; at E. coli Endo IV, > 57 µM; at APE1 [4] (setting [5]), 25.1 µM; at APE1 [4] (setting [6]), 7.9 µM. In addition, on APE1 [3], the “Radiotracer Assay (%Activity)” value turned out to be 24%.

As to `O=c1/c(=C/c2ccco2)sc2nc(-c3ccccc3Br)nn12` [MLS000039532], the IC50 at APE1 [1] was > 57 µM; in test [2], > 57 µM; at E. coli Endo IV, > 57 µM; on APE1 [4] (setting [5]) it was 22.4 µM; at APE1 [4] (setting [6]) it was 7.9 µM. Further, the “Radiotracer Assay (%Activity)” value at APE1 [3] was 9%.

Turning to `COc1ccc(N2CCN(C(=O)Cc3ccc(S(=O)(=O)N4CCOCC4)s3)CC2)cc1` [MLS000760918], the half-inhibitory concentration (IC50) on APE1 [1] was > 57 µM; in test [2], > 57 µM; at E. coli Endo IV, > 57 µM; at APE1 [4] (setting [5]), 14.1 µM. The “Radiotracer Assay (%Activity)” value on APE1 [3] is 45%.

`Cc1cc(C=O)c(C)n1-c1ccc(Cl)c(C(=O)O)c1` [MLS000676588]: the IC50 at APE1 [1] is > 57 µM; in test [2], > 57 µM; at E. coli Endo IV, > 57 µM; on APE1 [4] (setting [5]), 5.6 µM; at APE1 [4] (setting [6]), 8.9 µM. Moreover, the “Radiotracer Assay (%Activity)” value at APE1 [3] amounted to 31%.

Take `COc1cc(/C=N/Nc2ccc(C(=O)O)cc2)ccc1O` [MLS000685676]: the IC50 on APE1 [1] was > 57 µM; in test [2] it was > 57 µM; on E. coli Endo IV, > 57 µM; on APE1 [4] (setting [5]), 14.1 µM; on APE1 [4] (setting [6]) it was 14.1 µM. Further, the “Radiotracer Assay (%Activity)” value at APE1 [3] is recorded as 50%.

For the compound `O=C(N/N=C/c1cccn1-c1cccc(C(=O)O)c1)Nc1ccccc1` [MLS000588622], the 50% inhibitory concentration (IC50) was > 57 µM on APE1 [1]; > 57 µM in test [2]; > 57 µM on E. coli Endo IV; 5 µM at APE1 [4] (setting [5]); 3.5 µM at APE1 [4] (setting [6]). In addition, at APE1 [3], the “Radiotracer Assay (%Activity)” value was 32%.

In the case of `Cc1cc(C)c2nc(-c3ccco3)cc(C(=O)O)c2c1` [MLS000703171], the IC50 at APE1 [1] is > 57 µM; in test [2], > 57 µM; on E. coli Endo IV, > 57 µM; at APE1 [4] (setting [5]), 7.1 µM; at APE1 [4] (setting [6]), 12.6 µM. Further, the “Radiotracer Assay (%Activity)” value on APE1 [3] turned out to be 23%.

In the case of `COc1cc(N(C)C)cc(CN(C)CCc2ccc([N+](=O)[O-])cc2)c1O` [NCGC00165741], the IC50 on APE1 [1] was > 57 µM; in test [2], > 57 µM; at E. coli Endo IV, > 57 µM; at APE1 [4] (setting [5]) it was 3.2 µM; at APE1 [4] (setting [6]) it was 0.3 µM. Besides, on APE1 [3], the “Radiotracer Assay (%Activity)” value is on record as 10.6%.

Turning to `O=C1CC(=O)N(Cc2ccco2)C(=O)N1` [MLS000062734], the 50% inhibitory concentration (IC50) at APE1 [1] is > 57 µM; in test [2], > 57 µM; on E. coli Endo IV, > 57 µM; on APE1 [4] (setting [5]) it was 10 µM; at APE1 [4] (setting [6]), 5.6 µM. Besides, on APE1 [3], the “Radiotracer Assay (%Activity)” value worked out at 14%.

Regarding `O=C(c1cc(C(=O)c2ccco2)cc(C(=O)c2ccco2)c1)c1ccco1` [MLS000699310], the IC50 at APE1 [1] is > 57 µM; in test [2], > 57 µM; at E. coli Endo IV it was > 57 µM; at APE1 [4] (setting [5]), 31.6 µM; on APE1 [4] (setting [6]), 5 µM. For the same compound, the “Radiotracer Assay (%Activity)” value on APE1 [3] came to 6%.

On to `CCN(CC)C(=O)CC(c1cc(OC)c(OC)c(OC)c1)c1c(OC)cc(OC)c2c(-c3ccccc3)cc(=O)oc12` (centres unmarked) [MLS000879482], for which the IC50 on APE1 [1] was 12.6 µM; in test [2], > 57 µM; at E. coli Endo IV, > 57 µM; at APE1 [4] (setting [5]), 22.4 µM; at APE1 [4] (setting [6]), 5 µM. In addition, the “Radiotracer Assay (%Activity)” value at APE1 [3] worked out at 37%.

`O=C(NC1CC1)c1cc(-c2ccco2)nc2ccccc12` [MLS001005620]: the IC50 at APE1 [1] is > 57 µM; in test [2], > 57 µM; on E. coli Endo IV, > 57 µM; on APE1 [4] (setting [5]), 11.2 µM; at APE1 [4] (setting [6]), 4.4 µM. Moreover, the “Radiotracer Assay (%Activity)” value at APE1 [3] amounted to 17%.

As to `CCC(C)C(=O)OCC1(c2ccc(C)cc2OC(=O)C(C)C)CO1` (centres unmarked) [MLS000876981], the IC50 on APE1 [1] was > 57 µM; in test [2], > 57 µM; on E. coli Endo IV it was > 57 µM; on APE1 [4] (setting [5]), 8.9 µM; on APE1 [4] (setting [6]) it was 11.2 µM. For the same compound, at APE1 [3], the “Radiotracer Assay (%Activity)” value is on record as 36%.

Turning to `Oc1cc(O)c2c(c1)OC(c1ccc(O)c(O)c1)C(O)C2` (centres unmarked) [NCGC00095270], the half-maximal inhibitory concentration (IC50) was > 57 µM on APE1 [1]; > 57 µM in test [2]; > 57 µM at E. coli Endo IV; 3.2 µM at APE1 [4] (setting [5]); 2.8 µM at APE1 [4] (setting [6]). For the same compound, the “Radiotracer Assay (%Activity)” value at APE1 [3] is given as 35.9%.

What is called IC50 is the concentration needed to halve the response being measured.
